Measured values published in the NIST ThermoML archive (doi:10.1007/s10765-007-0169-z).

Key:
[1] = for surface tension liquid-gas: Drop volume; for mass density: 101.33 kPa, Liquid, Pycnometric method
[2] = xn = mol fraction of the nth substance listed; details: Drop volume

CC(C)CCl [1-chloro-2-methylpropane]
[1]
Details	mass density [kg/m3]	surface tension liquid-gas [mN/m]
298.15 K	871.13	21.8
313.15 K	–	19.18

CC(C)CCl [1-chloro-2-methylpropane] + C1CCOC1
[2]
Details	surface tension liquid-gas [mN/m]
298.15 K, x2 = 0.0652	22.25
298.15 K, x2 = 0.1201	22.54
298.15 K, x2 = 0.2392	23.06
298.15 K, x2 = 0.3613	23.53
298.15 K, x2 = 0.4622	23.94
298.15 K, x2 = 0.5682	24.44
298.15 K, x2 = 0.6614	24.9
298.15 K, x2 = 0.7586	25.42
298.15 K, x2 = 0.8408	25.89
298.15 K, x2 = 0.9257	26.45
298.15 K, x2 = 0.9662	26.75
313.15 K, x2 = 0.0619	19.77
313.15 K, x2 = 0.1268	20.25
313.15 K, x2 = 0.2531	21
313.15 K, x2 = 0.359	21.53
313.15 K, x2 = 0.4722	22.06
313.15 K, x2 = 0.5669	22.51
313.15 K, x2 = 0.659	22.97
313.15 K, x2 = 0.7539	23.45
313.15 K, x2 = 0.8338	23.88
313.15 K, x2 = 0.9198	24.42
313.15 K, x2 = 0.9751	24.83

CC(C)CCl [1-chloro-2-methylpropane] + C1CCOCC1
[2]
Details	surface tension liquid-gas [mN/m]
298.15 K, x2 = 0.0483	22.18
298.15 K, x2 = 0.1067	22.55
298.15 K, x2 = 0.2075	23.09
298.15 K, x2 = 0.32	23.63
298.15 K, x2 = 0.4148	24.07
298.15 K, x2 = 0.519	24.58
298.15 K, x2 = 0.6219	25.11
298.15 K, x2 = 0.7194	25.65
298.15 K, x2 = 0.8079	26.15
298.15 K, x2 = 0.9077	26.72
298.15 K, x2 = 0.9602	27.04
313.15 K, x2 = 0.0377	19.55
313.15 K, x2 = 0.1032	20.11
313.15 K, x2 = 0.2167	20.92
313.15 K, x2 = 0.3226	21.57
313.15 K, x2 = 0.4213	22.13
313.15 K, x2 = 0.5302	22.74
313.15 K, x2 = 0.6241	23.27
313.15 K, x2 = 0.7134	23.78
313.15 K, x2 = 0.8148	24.37
313.15 K, x2 = 0.9051	24.89
313.15 K, x2 = 0.966	25.22

CCCCCl [1-chlorobutane]
[1]
Details	mass density [kg/m3]	surface tension liquid-gas [mN/m]
298.15 K	880.69	23.29
313.15 K	–	21.58

CCCCCl [1-chlorobutane] + C1CCOC1
[2]
Details	surface tension liquid-gas [mN/m]
298.15 K, x2 = 0.0526	23.45
298.15 K, x2 = 0.1121	23.62
298.15 K, x2 = 0.2436	23.98
298.15 K, x2 = 0.3549	24.29
298.15 K, x2 = 0.4671	24.65
298.15 K, x2 = 0.5624	25
298.15 K, x2 = 0.6678	25.41
298.15 K, x2 = 0.7575	25.79
298.15 K, x2 = 0.84	26.16
298.15 K, x2 = 0.9224	26.58
298.15 K, x2 = 0.9739	26.87
313.15 K, x2 = 0.0654	21.78
313.15 K, x2 = 0.1272	21.95
313.15 K, x2 = 0.25	22.28
313.15 K, x2 = 0.3654	22.59
313.15 K, x2 = 0.4658	22.89
313.15 K, x2 = 0.5586	23.2
313.15 K, x2 = 0.6569	23.56
313.15 K, x2 = 0.7489	23.92
313.15 K, x2 = 0.8401	24.3
313.15 K, x2 = 0.9272	24.69
313.15 K, x2 = 0.9663	24.88

CCCCCl [1-chlorobutane] + C1CCOCC1
[2]
Details	surface tension liquid-gas [mN/m]
298.15 K, x2 = 0.0421	23.43
298.15 K, x2 = 0.1082	23.65
298.15 K, x2 = 0.2121	24.02
298.15 K, x2 = 0.3174	24.41
298.15 K, x2 = 0.4245	24.82
298.15 K, x2 = 0.5222	25.21
298.15 K, x2 = 0.6243	25.63
298.15 K, x2 = 0.7209	26.04
298.15 K, x2 = 0.8105	26.43
298.15 K, x2 = 0.9103	26.88
298.15 K, x2 = 0.9655	27.13
313.15 K, x2 = 0.0319	21.69
313.15 K, x2 = 0.1092	21.95
313.15 K, x2 = 0.208	22.29
313.15 K, x2 = 0.3137	22.66
313.15 K, x2 = 0.4209	23.04
313.15 K, x2 = 0.5149	23.39
313.15 K, x2 = 0.6199	23.8
313.15 K, x2 = 0.717	24.19
313.15 K, x2 = 0.8126	24.59
313.15 K, x2 = 0.9067	24.99
313.15 K, x2 = 0.965	25.24

CC(C)(C)Cl [2-chloro-2-methylpropane]
[1]
Details	mass density [kg/m3]	surface tension liquid-gas [mN/m]
298.15 K	836.45	18.9
313.15 K	–	16.98

CC(C)(C)Cl [2-chloro-2-methylpropane] + C1CCOC1
[2]
Details	surface tension liquid-gas [mN/m]
298.15 K, x2 = 0.0664	19.32
298.15 K, x2 = 0.1332	19.74
298.15 K, x2 = 0.2532	20.51
298.15 K, x2 = 0.3652	21.26
298.15 K, x2 = 0.4851	22.11
298.15 K, x2 = 0.5768	22.81
298.15 K, x2 = 0.6804	23.66
298.15 K, x2 = 0.7747	24.51
298.15 K, x2 = 0.8446	25.2
298.15 K, x2 = 0.9372	26.23
298.15 K, x2 = 0.9656	26.58
313.15 K, x2 = 0.0427	16.98
313.15 K, x2 = 0.1236	17.22
313.15 K, x2 = 0.1853	17.54
313.15 K, x2 = 0.2856	18.22
313.15 K, x2 = 0.3852	18.94
313.15 K, x2 = 0.5033	19.9
313.15 K, x2 = 0.6055	20.75
313.15 K, x2 = 0.6963	21.55
313.15 K, x2 = 0.794	22.48
313.15 K, x2 = 0.89	23.53
313.15 K, x2 = 0.9446	24.25

CC(C)(C)Cl [2-chloro-2-methylpropane] + C1CCOCC1
[2]
Details	surface tension liquid-gas [mN/m]
298.15 K, x2 = 0.0332	19.18
298.15 K, x2 = 0.0955	19.68
298.15 K, x2 = 0.2242	20.68
298.15 K, x2 = 0.3219	21.37
298.15 K, x2 = 0.4336	22.17
298.15 K, x2 = 0.5374	22.97
298.15 K, x2 = 0.6269	23.69
298.15 K, x2 = 0.7173	24.48
298.15 K, x2 = 0.8149	25.41
298.15 K, x2 = 0.9089	26.36
298.15 K, x2 = 0.9418	26.71
313.15 K, x2 = 0.0734	17.35
313.15 K, x2 = 0.1038	17.5
313.15 K, x2 = 0.2093	18.14
313.15 K, x2 = 0.3169	18.9
313.15 K, x2 = 0.4363	19.8
313.15 K, x2 = 0.5116	20.41
313.15 K, x2 = 0.612	21.24
313.15 K, x2 = 0.7058	22.05
313.15 K, x2 = 0.8154	23.08
313.15 K, x2 = 0.9006	23.98
313.15 K, x2 = 0.9529	24.66

CCC(C)Cl (centres undefined) [2-chlorobutane]
[1]
Details	mass density [kg/m3]	surface tension liquid-gas [mN/m]
298.15 K	867.37	21.93
313.15 K	–	19.33

CCC(C)Cl (centres undefined) [2-chlorobutane] + C1CCOC1
[2]
Details	surface tension liquid-gas [mN/m]
298.15 K, x2 = 0.0427	21.96
298.15 K, x2 = 0.1259	22.24
298.15 K, x2 = 0.2478	22.71
298.15 K, x2 = 0.3589	23.19
298.15 K, x2 = 0.4628	23.68
298.15 K, x2 = 0.5654	24.19
298.15 K, x2 = 0.6678	24.74
298.15 K, x2 = 0.7513	25.22
298.15 K, x2 = 0.84	25.77
298.15 K, x2 = 0.9208	26.35
298.15 K, x2 = 0.9701	26.76
313.15 K, x2 = 0.0581	19.7
313.15 K, x2 = 0.124	20.12
313.15 K, x2 = 0.2442	20.84
313.15 K, x2 = 0.3595	21.47
313.15 K, x2 = 0.4761	22.05
313.15 K, x2 = 0.573	22.53
313.15 K, x2 = 0.6654	23
313.15 K, x2 = 0.7524	23.45
313.15 K, x2 = 0.836	23.94
313.15 K, x2 = 0.9209	24.49
313.15 K, x2 = 0.9663	24.81

CCC(C)Cl (centres undefined) [2-chlorobutane] + C1CCOCC1
[2]
Details	surface tension liquid-gas [mN/m]
298.15 K, x2 = 0.04	22.05
298.15 K, x2 = 0.1057	22.38
298.15 K, x2 = 0.2133	22.88
298.15 K, x2 = 0.3195	23.39
298.15 K, x2 = 0.4166	23.88
298.15 K, x2 = 0.5188	24.44
298.15 K, x2 = 0.6151	24.99
298.15 K, x2 = 0.7111	25.56
298.15 K, x2 = 0.8098	26.15
298.15 K, x2 = 0.9438	26.95
298.15 K, x2 = 0.9845	27.2
313.15 K, x2 = 0.0355	19.56
313.15 K, x2 = 0.1006	20.01
313.15 K, x2 = 0.2177	20.83
313.15 K, x2 = 0.3192	21.5
313.15 K, x2 = 0.4243	22.14
313.15 K, x2 = 0.5166	22.66
313.15 K, x2 = 0.5931	23.07
313.15 K, x2 = 0.7193	23.76
313.15 K, x2 = 0.8156	24.31
313.15 K, x2 = 0.9057	24.85
313.15 K, x2 = 0.991	25.34

C1CCOC1 [tetrahydrofuran]
[1]
Details	mass density [kg/m3]	surface tension liquid-gas [mN/m]
298.15 K	881.95	27.04
313.15 K	–	25.05

C1CCOCC1 [tetrahydropyran]
[1]
Details	mass density [kg/m3]	surface tension liquid-gas [mN/m]
298.15 K	878.81	27.29
313.15 K	–	25.39
